Measurements from publication PMC9209747 (Neuro-oncology Advances, 2022).
Entries after “also recorded” stand apart in the source; their conditions may differ. Read-outs that look alike come from different tables or passages of the source. Marks after values point to notes of the source that are not given here.

Columns and labels:
[1] = Method: Patients received focal CRT at the current standard dose of 54 Gy in 180 cGy fractions, Monday through Friday for a total of 30 fractions over 6 weeks, with a rest period on Saturday and Sunday of each week.
Adverse events (AE) were graded according to the Common Terminology Criteria for Adverse Events version 5.0.
A rolling six design was used to estimate the MTD or RP2D. Overall survival (OS) was estimated using the Kaplan Meier method including 95% confidence intervals (CI). OS was calculated as the time (in months) from enrollment until date of death. […] Progressive disease was based on central imaging review. […] OS is compared with an historical cohort of patients which cumulatively includes DIPG patients from ACNS0126[23] and ACNS0222[22] using a log-rank test. PK parameters were analyzed with summary statistics, including means, and standard deviations.

[2] = test system: pediatric high-grade glioma including DIPG; design: method as in PMID 24305702, PMID 23270927; details: in combination with radiation therapy; cited from earlier work
[3] = design: method as in ref 25 = [25]; 25. Alexander B , Supko J , Agar N , et al. ACTR-14. Phase 1 study of AZD1775 with radiation therapy (RT) and Temozolomide (TMZ) in patients with newly diagnosed gliobasltoma (GBM) and evaluation of i; details: adavosertib 200 mg/day (approximately 115 mg/m^2/day) in combination with temozolomide; cited from earlier work
clinical = details: human, in vivo
Method: Pharmacokinetic parameters were calculated using noncompartmental methods[20] using Phoenix® WinNonlin® Version 8.1 (WinNonlin version 8.1.03530, Pheonix 64; Pharsight Corporation, Mountain View, CA). […] Oral steady-state clearance (ClSS/F) was calculated using the equation, ClSS = Dose/AUCτ.

[4] = test system: newly diagnosed diffuse intrinsic pontine glioma (DIPG); experiment: Clinical activity: objective response by MRI and overall survival; assay type: in vivo, human
Method: Disease assessments were performed at baseline prior to start of CRT, within 3–4 weeks after completion of CRT, and then every 3 months. Response assessment was determined by changes in size using the maximal 2-dimensional cross-sectional tumor measurements, T × W (product of the longest diameter of the tumor [width (W)] and its longest perpendicular diameter [transverse (T)], using either T1 or T2 weighted images, similar to historical controls.[21],[22] We defined stable disease (SD) as failing to meet criteria for either partial response (PR), complete response (CR) or progressive disease (PD). PD was defined as any appearance of new lesion(s) or an increase of 25% or more in the sum of the product of the perpendicular diameters of the target lesions. PR was defined as a decrease of 50% or more in the sum of the products of the two perpendicular diameters of the target lesion. Two objective determinations of disease status, by MRI, obtained on two consecutive determinations, separated by at least a 4-week time period, were required to determine the patient’s overall best response. Imaging was reviewed centrally for 41 response-evaluable patients.
Progressive disease was based on central imaging review.

[5] = cited from earlier work
[6] = 41 patients evaluable for objective response, with CRT

SMILES: C=CCn1c(=O)c2cnc(Nc3ccc(N4CCN(C)CC4)cc3)nc2n1-c1cccc(C(C)(C)O)n1 [adavosertib]
- Lung infection, patient-courses with grade >= 3 ([1]; all dose levels (N = 89)): 1 (1) # (%)
- Lung infection, patient-courses with grade >= 3 ([1]; dose level 4 (N = 15), 95 mg/m^2): 1 (6) # (%)
- Alanine aminotransferase increased, patient-courses with grade >= 3 ([1]; human, in vivo, 6 weeks): 1 (1) # (%)
- Anemia, patient-courses with grade >= 3 ([1]; human, in vivo, 6 weeks): 3 (3) # (%)
- Dizziness, patient-courses with grade >= 3 ([1]; human, in vivo, 6 weeks): 1 (1) # (%)
- Febrile neutropenia, patient-courses with grade >= 3 ([1]; human, in vivo, 6 weeks): 1 (1) # (%)
- Headache, patient-courses with grade >= 3 ([1]; human, in vivo, 6 weeks): 1 (1) # (%)
- Hypocalcemia, patient-courses with grade >= 3 ([1]; human, in vivo, 6 weeks): 1 (1) # (%)
- Lymphocyte count decreased, patient-courses with grade >= 3 ([1]; human, in vivo, 6 weeks): 16 (18) # (%)
- Neutrophil count decreased, patient-courses with grade >= 3 ([1]; human, in vivo, 6 weeks): 4 (4) # (%)
- Weight gain, patient-courses with grade >= 3 ([1]; human, in vivo, 6 weeks): 2 (2) # (%)
- White blood cell decreased, patient-courses with grade >= 3 ([1]; human, in vivo, 6 weeks): 5 (6) # (%)
- Recommended phase 2 dose (RP2D) ([1]; human, in vivo, po, 6 weeks): 200 mg/m^2/d
- Maximum tolerated dose (MTD) ([1]; seven dose levels up to 200 mg/m^2/day with CRT): No MTD was reached
- Survival in murine models [2]: prolongs survival
- Toxicity in adults with newly diagnosed glioblastoma [3]: significant toxicity
- Dose dependence of Cmax and AUC (clinical): appeared to increase in proportion to dose
- Median BSA-adjusted plasma clearance (clinical): 45.2 L/hr/m^2
- Median half-life (clinical): 4.4 h
- half-life (clinical): 4.4 h
- AUC (clinical; 50 mg/m2): 2.45 ± 1.04 µM·h
- AUC0-8h (clinical; 50 mg/m2): 1.42 ± 0.438 µM·h
- AUC(0-inf) (clinical; 50 mg/m2): 2.22 ± 0.8 µM·h
- CLss (steady-state clearance) (clinical; 50 mg/m2): 47.9 ± 23.2 L/hr/m^2
- Cmax (clinical; 50 mg/m2): 356 ± 109 nM
- Tmax (clinical; 50 mg/m2): 1.9 ± 0.9 h
- half-life (clinical; 50 mg/m2): 4.2 ± 1.3 h
- AUC(0-t) (clinical; 50 mg/m2, AUC0-8h): 1.65 ± 0.654 µM·h
- Cmax (clinical; 50 mg/m2, Cmax): 422 ± 170 nM
- Tmax (clinical; 50 mg/m2, Tmax): 1.9 ± 0.9 h
- AUC (clinical; 95 mg/m2): 5.74 ± 2.72 µM·h
- AUC0-8h (clinical; 95 mg/m2): 3.362 ± 0.85 µM·h
- AUC(0-inf) (clinical; 95 mg/m2): 6.03 ± 1.98 µM·h
- CLss (steady-state clearance) (clinical; 95 mg/m2): 39.2 ± 17.2 L/hr/m^2
- Cmax (clinical; 95 mg/m2): 869 ± 235 nM
- Tmax (clinical; 95 mg/m2): 1.8 ± 0.4 h
- half-life (clinical; 95 mg/m2): 4.5 ± 1.2 h
- AUC(0-t) (clinical; 95 mg/m2, AUC0-8h): 4.01 ± 1.81 µM·h
- Cmax (clinical; 95 mg/m2, Cmax): 933 ± 351 nM
- Tmax (clinical; 95 mg/m2, Tmax): 1.9 ± 0.5 h
- AUC (clinical; 130 mg/m2): 7.21 ± 2.76 µM·h
- AUC0-8h (clinical; 130 mg/m2): 3.731 ± 1.583 µM·h
- AUC(0-inf) (clinical; 130 mg/m2): 5.87 ± 2.26 µM·h
- CLss (steady-state clearance) (clinical; 130 mg/m2): 41.6 ± 19.8 L/hr/m^2
- Cmax (clinical; 130 mg/m2): 821 ± 410 nM
- half-life (clinical; 130 mg/m2): 4.1 ± 0.5 h
- AUC(0-t) (clinical; 130 mg/m2, AUC0-8h): 4.48 ± 1.77 µM·h
- Cmax (clinical; 130 mg/m2, Cmax): 994 ± 467 nM
- Tmax (clinical; 130 mg/m2, Tmax): 2.3 ± 0.8 h
- AUC (clinical; 160 mg/m2): 12.8 ± 1.8 µM·h
- AUC0-8h (clinical; 160 mg/m2): 6.689 ± 2.738 µM·h
- AUC(0-inf) (clinical; 160 mg/m2): 11.4 ± 3.73 µM·h
- CLss (steady-state clearance) (clinical; 160 mg/m2): 25.6 ± 3.3 (n* = 4) L/hr/m^2
- Cmax (clinical; 160 mg/m2): 1270 ± 705 nM
- half-life (clinical; 160 mg/m2): 4.8 ± 1 h
- AUC(0-t) (clinical; 160 mg/m2, AUC0-8h): 8.47 ± 2.36 µM·h
- Cmax (clinical; 160 mg/m2, Cmax): 1690 ± 670 nM
- Tmax (clinical; 160 mg/m2, Tmax): 2.2 ± 1.1 h
- AUC (clinical; 200 mg/m2): 16.4 ± 7.76 µM·h
- AUC0-8h (clinical; 200 mg/m2): 6.904 ± 2.758 µM·h
- AUC(0-inf) (clinical; 200 mg/m2): 12.2 ± 1.7 µM·h
- CLss (steady-state clearance) (clinical; 200 mg/m2): 33.4 ± 25.8 L/hr/m^2
- Cmax (clinical; 200 mg/m2): 1650 ± 1050 nM
- Tmax (clinical; 200 mg/m2): 2.5 ± 2.1 h
- half-life (clinical; 200 mg/m2): 5.6 ± 1.3 h
- AUC(0-t) (clinical; 200 mg/m2, AUC0-8h): 9.63 ± 4.22 µM·h
- Cmax (clinical; 200 mg/m2, Cmax): 2020 ± 780 nM
- Tmax (clinical; 200 mg/m2, Tmax): 2.6 ± 1.4 h
- Mean oral clearance (clinical; po): 46.9 L/h
- Tmax (clinical; po, Tmax): 2 h
- Progressive disease (PD) as best overall response, number of patients [4, 6]: 8
- Progressive disease (PD) as best overall response, share of patients [4, 6]: 19.5%
- Stable disease (SD) as best overall response, number of patients [4, 6]: 33
- Stable disease (SD) as best overall response, share of patients [4, 6]: 80.5%
- Best response by dose level ([4]; Fisher exact P = .82): no significant difference in best response by dose level
- Median overall survival (OS) ([4]; Kaplan Meier, adavosertib with CRT, all dose levels): 11.8 months
- OS compared to historical control ([4]; historical cohort ACNS0126 and ACNS0222, log-rank test): did not differ from historical control; also recorded: no significant difference in median OS; also recorded: not superior
- BSA-adjusted plasma clearance ([5]; earlier pediatric COG study): 32.5 L/hr/m^2
- MTD of adavosertib ([5]; in combination with irinotecan 90 mg/m^2/dose, orally daily for 5 days on a 21 day cycle): 85 mg/m^2/dose
